# Reference: PMC10824666 (Nature Cancer, 2023)
# Like-named read-outs stand apart in the source and are kept apart here.
# Legend:
# [1] = biological target: T1, GAK (Homo sapiens, UniProt O14976); assay: biochemical; design: Eurofins DiscoverX kinase panel, competitive binding assay at 1 uM, percent of DMSO control; settings: competitive binding, percent of DMSO control
# T1 sequence (O14976 1-1311): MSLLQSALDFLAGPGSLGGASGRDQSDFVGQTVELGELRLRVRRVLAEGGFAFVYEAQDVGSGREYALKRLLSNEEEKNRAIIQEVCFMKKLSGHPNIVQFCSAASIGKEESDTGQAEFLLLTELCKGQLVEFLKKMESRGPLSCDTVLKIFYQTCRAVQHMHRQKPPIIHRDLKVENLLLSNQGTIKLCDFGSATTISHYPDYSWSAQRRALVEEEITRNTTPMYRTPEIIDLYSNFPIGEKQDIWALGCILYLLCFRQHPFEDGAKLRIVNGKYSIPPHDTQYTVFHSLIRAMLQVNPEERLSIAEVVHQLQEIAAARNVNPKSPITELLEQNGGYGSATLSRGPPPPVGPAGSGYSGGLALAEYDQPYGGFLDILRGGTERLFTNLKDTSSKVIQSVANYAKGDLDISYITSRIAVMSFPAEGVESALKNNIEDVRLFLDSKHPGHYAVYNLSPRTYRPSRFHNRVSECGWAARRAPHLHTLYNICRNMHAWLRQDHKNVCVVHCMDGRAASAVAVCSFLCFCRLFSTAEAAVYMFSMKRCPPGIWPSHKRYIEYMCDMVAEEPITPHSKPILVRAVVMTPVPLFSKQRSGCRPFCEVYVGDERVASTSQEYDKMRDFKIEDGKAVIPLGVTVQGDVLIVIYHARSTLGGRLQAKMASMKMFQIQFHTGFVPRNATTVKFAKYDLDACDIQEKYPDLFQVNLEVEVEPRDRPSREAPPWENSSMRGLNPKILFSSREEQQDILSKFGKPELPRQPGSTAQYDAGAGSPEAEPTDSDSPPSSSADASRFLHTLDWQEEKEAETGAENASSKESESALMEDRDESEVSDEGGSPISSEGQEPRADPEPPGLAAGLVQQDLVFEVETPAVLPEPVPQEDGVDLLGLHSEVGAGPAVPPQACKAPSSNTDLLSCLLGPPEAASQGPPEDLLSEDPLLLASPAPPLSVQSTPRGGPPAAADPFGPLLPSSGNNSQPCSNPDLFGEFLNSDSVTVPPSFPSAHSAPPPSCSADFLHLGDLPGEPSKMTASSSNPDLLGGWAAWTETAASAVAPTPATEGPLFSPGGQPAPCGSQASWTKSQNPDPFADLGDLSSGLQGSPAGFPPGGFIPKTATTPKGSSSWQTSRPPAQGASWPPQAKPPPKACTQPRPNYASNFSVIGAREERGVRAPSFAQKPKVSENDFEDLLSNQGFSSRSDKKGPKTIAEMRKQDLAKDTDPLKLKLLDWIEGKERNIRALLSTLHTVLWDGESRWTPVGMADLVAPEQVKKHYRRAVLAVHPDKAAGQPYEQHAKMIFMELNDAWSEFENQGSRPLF
# Method in brief: (§1)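 Competitive binding assay across a 96-kinase panel with KIF18A compounds at 1 µM; values given as percentage of control (POC), single experiment.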
# [2] = biological target: MAPK4 (Homo sapiens, UniProt P31152); assay: biochemical; design: Eurofins DiscoverX kinase panel, competitive binding assay at 1 uM, percent of DMSO control; settings: competitive binding, percent of DMSO control
# Method in brief: as §1
# [3] = read-out: Kinome Profiling performed by Eurofins DiscoverX / AM-1882, 1.0 µM / POC
# [4] = read-out: Kinome Profiling performed by Eurofins DiscoverX / AM-0277, 1.0 µM / POC
# [5] = read-out: Kinome Profiling performed by Eurofins DiscoverX / AM-5308, 1.0 µM / POC
# Sequence of MAPK4 (P31152 whole entry): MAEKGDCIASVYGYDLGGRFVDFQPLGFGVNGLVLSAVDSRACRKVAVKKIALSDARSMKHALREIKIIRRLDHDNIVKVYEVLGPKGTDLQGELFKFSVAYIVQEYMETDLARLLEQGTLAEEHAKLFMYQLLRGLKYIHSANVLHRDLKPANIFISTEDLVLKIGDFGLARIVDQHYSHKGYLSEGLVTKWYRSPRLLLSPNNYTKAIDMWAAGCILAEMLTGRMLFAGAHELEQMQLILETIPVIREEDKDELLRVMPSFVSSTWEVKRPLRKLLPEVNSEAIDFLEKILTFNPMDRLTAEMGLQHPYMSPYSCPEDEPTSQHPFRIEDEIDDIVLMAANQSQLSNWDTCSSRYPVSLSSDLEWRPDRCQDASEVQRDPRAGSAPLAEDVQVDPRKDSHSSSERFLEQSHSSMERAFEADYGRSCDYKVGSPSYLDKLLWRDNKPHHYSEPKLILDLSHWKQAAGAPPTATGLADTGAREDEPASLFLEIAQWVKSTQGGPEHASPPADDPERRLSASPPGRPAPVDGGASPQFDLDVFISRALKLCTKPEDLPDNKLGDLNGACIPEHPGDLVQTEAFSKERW
compound,measurement,setting,value
CC(C)(C)NS(=O)(=O)c1cccc(NC(=O)c2ccc(S(=O)(=O)NC(C)(C)C)cc2N2CCC3(CC2)CC3)c1 [AM-1882],remaining activity at 1 µM,[1]; [3],99.5%
same,remaining activity at 1 µM,[2]; [3],99%
CC(C)(CO)Nc1ccc(C(=O)Nc2cccc(S(=O)(=O)C3CCCC3)c2)c(N2CCC3(CC2)CC3)n1 [AM-0277],remaining activity at 1 µM,[1]; [4],100%
same,remaining activity at 1 µM,[2]; [4],98%
C[C@@H]1CN(c2cccc(NC(=O)c3ccc(NS(=O)(=O)CCO)cc3N3CCC4(CC3)CC4)n2)CCO1 [AM-5308],remaining activity at 1 µM,[1]; [5],86%
same,remaining activity at 1 µM,[2]; [5],81.5%
